For one assay, the system named is H. pylori ATCC 700392. As to the kind of experiment: anti-Helicobacter pylori activity, microwell dilution method with MTT. The class given is cell-based. The note with it: for MIC: read-out: MIC (H. pylori). As to the method:
The anti-Helicobacter pylori activity of the PF and NPF as well as the isolated compounds was evaluated against H. pylori ATCC 700392 (type strain, obtained from the American Type Culture Collection unit (ATCC), using microwell dilution method and clarithromycin as standard drug[37]. The detailed procedures were described in the supplementary file.
The anti-Helicobacter pylori activity of the PF and NPF as well as the isolated compounds was evaluated against H. pylori ATCC 700392 (a type strain, obtained from the American Type Culture Collection unit (ATCC), using microwell dilution method and clarithromycin as standard drug ^1. The tested samples were prepared in dimethyl sulfoxide and successive ten twofold dilutions (125- 0.24 µg/mL) were carried out in a 96-well plate. Each microplate well included forty μL of Brain Heart Infusion growth medium and 10% fetal bovine serum (FBS), ten μL of inoculum and fifty μL of the tested sample. The plates were incubated for 3 days, in 5% oxygen, 10% carbon dioxide, 85 % nitrogen atmosphere at 37°C. Forty μL of 3- (4, 5-dimethyl-thiazol-2-yl)- 2,5-diphenyl-tetrazolium bromide (MTT) at a final concentration of 0.5 mg/mL freshly prepared in H2O was added to each well and incubated for 30 min. The bacteria were biologically active when change to purple color was observed ^1. While no change in MTT color indicated inhibition. Solvent control (DMSO) and the standard antibiotic (clarithromycin) were used as negative and positive controls, respectively. The H. pylori inhibition % was calculated using the given formula:
% Inhibition = Abs control – Abs sample × 100 /Abs control.

Assay [1] addresses T1, Human inosine-5′-monophosphate dehydrogenase (hIMPDH2) (Homo sapiens, UniProt P12268).
T1 construct: purchased NovoCIB SAS (Lyon, France)
The assay is described as follows: In vitro hIMPDH2 inhibition assay (NADH absorbance at 340 nm). The class given is biochemical. On the set-up: key to hIMPDH2 inhibitory activity: % hIMPDH2 inhibition. Particulars: for hIMPDH2 inhibitory activity: in % (unit assumed). The method, then: Human inosine-5′-monophosphate dehydrogenase (hIMPDH2) was purchased from NovoCIB SAS (Lyon, France). […] The detailed procedures were described in the supplementary file.
Thus, irigenin was selected to test its HpIMPDH inhibitory activity by monitoring NADH production at concentration range of 10–0.078 µM compared to clarithromycin as standard drug. Also, to examine irigenin selectivity toward the bacterial IMPDH, human hIMPDH2 inhibition potential was assayed.
Human inosine-5′-monophosphate dehydrogenase (hIMPDH2) was purchased from NovoCIB SAS (Lyon, France). […] The assay was carried out in 96-well plates (Tarsons, 980040). The reaction buffer consisted of hundred mM KCl, hundred mM Tris–HCl (pH 8.6), and five mM DTT, 4% v/v DMSO with or without the tested compound and 0.15 mU of purified hIMPDH2 enzyme per well (from 1.5 mg/mL stock concentration). The enzyme stock solution final volume was 2 μL per well, which was insignificant to cause final assay buffer composition change. Addition of (substrate buffer) 0.2 mM of IMP and 0.2 mM of NAD^+ initiated the assay, then it was allowed to proceed for 30 min at 37 °C. The formed NADH was measured by reading the absorbance at 340 nm. […] The concentration of the tested sample leading to 50% hIMPDH2 inhibition (IC50) was estimated.

≈ marks a conversion by molar mass, not a printed value. Where “and” joins values, the source holds several entries; their conditions need not be identical. Equal values may be shown once. Read-outs that look alike come from different tables or passages of the source.

Usually MIC stands for the lowest concentration that inhibits growth of the organism. In general, IC50 refers to the point on the concentration scale where inhibition reaches its midpoint.

As for `COc1cc(-c2coc3cc(O)c(OC)c(O)c3c2=O)cc(O)c1OC` [Irigenin (P3), 3′,5,7-trihydroxy-4′,5′,6 trimethoxyisoflavone], the MIC in the assay on H. pylori ATCC 700392 (Helicobacter pylori, ATCC700392) is 3.9 µg/mL and 10.8 µM; in the assay with H. pylori ATCC 700392 (concentration required for 100% inhibition, H. pylori ATCC 700392), 10.82 µM (≈ 3.9 µg/mL). The “MIC (H. pylori)” value in the assay with H. pylori ATCC 700392 (concentration required for 100% inhibition, H. pylori ATCC 700392, ND = not detected) stood at 3.90 µg/mL (≈ 10.8 µM). Moreover, the IC50 in assay [1] is over 10 µM. Further, the hIMPDH2 inhibitory activity worked out at 0.00 in assay [1] (sample conc. 0.078 (range 10–0.078 µM)); 0.00 in assay [1] (sample conc. 0.156 (range 10–0.078 µM)); 0.00 in assay [1] (sample conc. 0.313 (range 10–0.078 µM)); 0.00 in assay [1] (sample conc. 0.625 (range 10–0.078 µM)); 0.00 in assay [1] (sample conc. 1.25 (range 10–0.078 µM)); 4.81 ± 0.91 in assay [1] (sample conc. 2.5 (range 10–0.078 µM)). Besides, the hIMPDH2 inhibitory activity in assay [1] (sample conc. 5 (range 10–0.078 µM)) is listed as 10.36 ± 0.72; in assay [1] (sample conc. 10 (range 10–0.078 µM)) it was 22.68 ± 1.00.

These data come from publication PMC9259591, “Irigenin, a novel lead from Iris confusa for management of Helicobacter pylori infection with selective COX-2 and HpIMPDH inhibitory potential” (Scientific Reports, 2022).
